In patent publication US20060223879A1, “Non-steroidal farnesoid x receptor modulators” (priority 2002, published 2006):
Several values for one entry are separate records, joined by “and”; a condition that tells them apart may be missing. Equal values may be shown once. Entries after “also recorded” stand apart in the source; their conditions may differ. Read-outs that look alike come from different tables or passages of the source. Values belong to the compound of their own block, whether it stands above or below them.

Target: T1, FXR (Homo sapiens, UniProt Q96RI1)
T1 construct: using a full length FXR on a natural response element; expressed in transfected cells
T1 sequence (Q96RI1 1-486): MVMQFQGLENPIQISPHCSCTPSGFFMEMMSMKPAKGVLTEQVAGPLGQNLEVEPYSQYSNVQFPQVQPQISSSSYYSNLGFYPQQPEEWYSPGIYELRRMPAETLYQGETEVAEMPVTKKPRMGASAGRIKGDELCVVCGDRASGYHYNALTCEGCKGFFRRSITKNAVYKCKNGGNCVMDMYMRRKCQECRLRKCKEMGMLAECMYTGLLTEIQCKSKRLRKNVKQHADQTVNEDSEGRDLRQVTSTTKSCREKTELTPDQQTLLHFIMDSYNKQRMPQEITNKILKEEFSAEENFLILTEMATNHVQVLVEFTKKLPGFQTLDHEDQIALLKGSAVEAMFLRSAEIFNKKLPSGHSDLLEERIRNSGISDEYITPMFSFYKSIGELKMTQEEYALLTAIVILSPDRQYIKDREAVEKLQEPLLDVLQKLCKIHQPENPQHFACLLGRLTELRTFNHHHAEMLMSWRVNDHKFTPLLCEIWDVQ
Test: cell-based transcription assay, FXR responsive promoter linked to a luciferase reporter
Set-up: RE: scale not given here
Conditions: for RE: RE not defined in the source
Description: In addition to ensuring that only cell permeable compounds were selected for further optimization, this approach allows for the detection of FXR activation in a natural system (i.e., correct folding of the protein and in the presence of a complete compliment of co-activators and co-repressors).
The feasibility of creating high throughput screens (XIS) for ORs was explored using FXR as a candidate orphan receptor (OR) with a known activator, chenodeoxycholic acid (CDCA) as a ligand. The screen is based on the co-transfection of a full-length receptor with the reporter vector containing a natural hormone response element under a minimal eukaryotic promoter. […] Using this 384-well format, the high throughput screening (HTS) approach to FXR as a candidate OR was employed. […] A central question in the feasibility studies is whether this library is suitable for screening for nuclear receptor ligands. Samples of this library were first reformatted into a 384-well format and then subjected to the FXR cell-based assays described above and assessed for FXR-mediated transcriptional activity. Cells were exposed to approximately 10 μM of sample for 18 hrs prior to washing and luciferase analysis.
EC50 values were determined with Prism 3.0 software via the activity of the subject compound in the previously described cell based assay.

[1] = library screening hits and leads, read-out: activity (EC50)
[2] = FXR activation, cell-based reporter assay, read-out: EC50
[3] = Tables 1-15, FXR activation, cell-based reporter assay, read-out: EC50

SMILES: COC(=O)/C=C/c1cccc(N(Cc2ccc3c(c2OC)OC(C)(C)[C@@H](OC(C)=O)[C@H]3OC(C)=O)C(=O)c2ccccc2)c1 (relative stereo) [Compound 95]
FXR activation (in words) (cell-based reporter assay): Nor did the addition of H-bond acceptors such as in 89, 90, 95, 99 and 101 improve the ability of the parent compound 68 to activate FXR

SMILES: COc1cc(CN(CC(C)C)C(=O)C2CCCCC2)cc2c1OC(C)(C)C=C2 [Compound 16]
EC50 [1]: 5 to 10 µM

SMILES: COc1c(CN(C(=O)c2ccccc2C(=O)O)c2ccncc2)ccc2c1OC(C)(C)C=C2 [Compound 17]
EC50 [1]: 5 to 10 µM

SMILES: COc1cc(CN(Cc2ccccc2)C(=O)NC2CCCC2)cc2c1OC(C)(C)C=C2 [Compound 18]
EC50 [1]: 5 to 10 µM

SMILES: COc1c(CN(C(=O)C2CCCCC2)C(C)C)ccc2c1OC(C)(C)C=C2 [Compound 19]
EC50 [1]: 5 to 10 µM

SMILES: COc1cc(CN(CC(C)C)C(=O)c2ccccc2)cc2c1OC(C)(C)C=C2 [Compound 20]
EC50 [1]: 5 to 10 µM

SMILES: COc1c(CN(C(=O)CC(C)C)C(C)C)ccc2c1OC(C)(C)C=C2 [Compound 21]
EC50 [1]: 5 to 10 µM

SMILES: COc1c(CN(C(=O)c2ccccc2C(=O)O)c2ccccc2)ccc2c1OC(C)(C)C=C2 [Compound 22]
EC50 [1]: 5 to 10 µM

SMILES: COc1c(CN(Cc2ccccc2)C(=O)C2CC2)ccc2c1OC(C)(C)C=C2 [Compound 23]
EC50 [1]: 5 to 10 µM

SMILES: COc1cc(CN(C(=O)CC(C)C)c2ccccc2)cc2c1OC(C)(C)C=C2 [Compound 24]
EC50 [1]: 5 to 10 µM

SMILES: COc1cc(CN(C(=O)Nc2ccccc2)c2ccccc2)cc2c1OC(C)(C)C=C2 [Compound 25]
EC50 [1]: 5 to 10 µM

SMILES: COc1c(CN(C(=O)C2CC2)c2ccccc2)ccc2c1OC(C)(C)C=C2 [Compound 26]
FXR activation (in words) (cell-based reporter assay): among the most active at this stage
EC50 [1]: 5 to 10 µM

SMILES: COc1c(CN(C(=O)C2CCCCC2)c2ccccc2)ccc2c1OC(C)(C)C=C2 [Compound 27]
FXR activation (in words) (cell-based reporter assay): among the most active at this stage
EC50 [1]: 5 to 10 µM

SMILES: COC(=O)/C=C/c1cccc(N(Cc2ccc3c(c2OC)OC(C)(C)C=C3)C(=O)C2CC2)c1 [Compound 29]
FXR activation (in words) (cell-based reporter assay): substantially better activator of FXR than compound 26; also recorded: capable of activating FXR to a significant extent

SMILES: CCOC(=O)/C=C/c1cccc(N(Cc2ccc3c(c2OC)OC(C)(C)C=C3)C(=O)C2CC2)c1 [Compound 30]
FXR activation (in words) (cell-based reporter assay): inactive

SMILES: COC/C=C/c1cccc(N(Cc2ccc3c(c2OC)OC(C)(C)C=C3)C(=O)C2CC2)c1 [Compound 33]
FXR activation (in words) (cell-based reporter assay): capable of activating FXR to a significant extent

SMILES: COc1c(CN(C(=O)C2CC2)c2cccc(/C=C/C#N)c2)ccc2c1OC(C)(C)C=C2 [Compound 34]
FXR activation (in words) (cell-based reporter assay): inactive

SMILES: CNC(=O)/C=C/c1cccc(N(Cc2ccc3c(c2OC)OC(C)(C)C=C3)C(=O)C2CC2)c1 [Compound 38]
FXR activation (in words) (cell-based reporter assay): inactive

SMILES: COC(=O)/C=C/c1ccc(N(Cc2ccc3c(c2OC)OC(C)(C)C=C3)C(=O)C2CC2)cc1 [Compound 53]
FXR activation (in words) (cell-based reporter assay): does not activate FXR under the conditions tested

SMILES: COC(=O)/C=C/c1cccc(N(Cc2ccc3c(c2OC)OC(C)(C)CC3=O)C(=O)c2ccccc2)c1 [Compound 89]
FXR activation (in words) (cell-based reporter assay): Nor did the addition of H-bond acceptors such as in 89, 90, 95, 99 and 101 improve the ability of the parent compound 68 to activate FXR

SMILES: COC(=O)/C=C/c1cccc(N(Cc2ccc3c(c2OC)OC(C)(C)C(C)C3=O)C(=O)c2ccccc2)c1 (centres unmarked) [Compound 90]
FXR activation (in words) (cell-based reporter assay): Nor did the addition of H-bond acceptors such as in 89, 90, 95, 99 and 101 improve the ability of the parent compound 68 to activate FXR

SMILES: COC(=O)C=Cc1cccc(N(Cc2ccc3c(c2OC)OC(C)(C)C(OC(C)=O)C3Sc2ccccc2)C(=O)c2ccccc2)c1 (centres unmarked) [Compound 99]
FXR activation (in words) (cell-based reporter assay): Nor did the addition of H-bond acceptors such as in 89, 90, 95, 99 and 101 improve the ability of the parent compound 68 to activate FXR

SMILES: COC(=O)C=Cc1cccc(N(Cc2ccc3c(c2OC)OC(C)(C)C(OC(C)=O)C3N2CCCCC2)C(=O)c2ccccc2)c1 (centres unmarked) [Compound 101]
FXR activation (in words) (cell-based reporter assay): Nor did the addition of H-bond acceptors such as in 89, 90, 95, 99 and 101 improve the ability of the parent compound 68 to activate FXR

Next, values leading:

EC50 [2]: 0.358 µM and 0.348 µM
RE (Tables 1-15): 0.40
SMILES: COC(=O)/C=C/c1cccc(N(Cc2ccc3c(c2OC)OC(C)(C)C=C3)C(=O)C2CCCCC2)c1 [Compound 65]

EC50 [2]: 1 µM
EC50 [3]: > 1 µM
RE (Tables 1-15): 0.83
SMILES: COC(=O)/C=C/c1cccc(N(Cc2ccc3c(c2OC)OC(C)(C)C=C3)C(=O)c2ccccc2)c1 [Compound 68]

FXR activation (in words) (cell-based reporter assay): inactive
SMILES: COC(=O)/C=C/c1cccc(N(Cc2ccccc2)Cc2ccc3c(c2OC)OC(C)(C)C=C3)c1 [Compound 78]

FXR activation (in words) (cell-based reporter assay): inactive
SMILES: COC(=O)/C=C/c1cccc(N(C)Cc2ccc3c(c2OC)OC(C)(C)C=C3)c1 [Compound 79]

FXR activation (in words) (cell-based reporter assay): inactive
SMILES: COC(=O)/C=C/c1cccc(N(Cc2ccc3c(c2OC)OC(C)(C)C=C3)S(=O)(=O)c2ccc(C)cc2)c1 [Compound 82]

FXR activation (in words) (cell-based reporter assay): inactive
SMILES: COC(=O)/C=C/c1cccc(N(Cc2ccc3c(c2OC)OC(C)(C)C=C3)C(=S)C2CC2)c1 [Compound 83]

FXR activation (in words) (cell-based reporter assay): inactive
SMILES: COC(=O)/C=C/c1cccc(N(Cc2ccc3c(c2OC)OC(C)(C)C=C3)C(=S)NCc2ccccc2)c1 [Compound 84]

FXR activation (in words) (cell-based reporter assay): did not improve the activity
SMILES: COC(=O)/C=C/c1cccc(N(Cc2ccc3c(c2OC)OC(C)(C)C=C3C(=O)O)C(=O)c2ccccc2)c1 [Compound 86]

FXR activation (in words) (cell-based reporter assay): did not improve the activity
SMILES: COC(=O)/C=C/c1cccc(N(Cc2ccc3c(c2OC)OC(C)(C)[C@@H](O)[C@H]3O)C(=O)c2ccccc2)c1 [Compound 93]

FXR activation (in words) (cell-based reporter assay): did not improve the activity
SMILES: COC(=O)C=Cc1cccc(N(Cc2ccc3c(c2OC)OC(C)(C)C(O)C3O)C(=O)c2ccccc2)c1 (centres unmarked) [Compound 94]

FXR activation (in words) (cell-based reporter assay): did not improve the activity
SMILES: COC(=O)C=Cc1cccc(N(Cc2ccc3c(c2OC)OC(C)(C)C(O)C3Sc2ccccc2)C(=O)c2ccccc2)c1 (centres unmarked) [Compound 98]

FXR activation (in words) (cell-based reporter assay): did not improve the activity
SMILES: COC(=O)C=Cc1cccc(N(Cc2ccc3c(c2OC)OC(C)(C)C(O)C3N2CCCCC2)C(=O)c2ccccc2)c1 (centres unmarked) [Compound 100]

EC50 [2]: 0.333 µM
RE (Tables 1-15): 0.64
SMILES: COC(=O)/C=C/c1cccc(N(Cc2ccc3c(c2OC)OC(C)(C)C2C3C2(Cl)Cl)C(=O)c2ccccc2)c1 (centres unmarked) [Compound 102]

EC50 [3]: > 1 µM
RE (Tables 1-15): 0.08
SMILES: COC(=O)C=Cc1cccc(N(Cc2ccc(C=CC(=O)O)cc2)C(=O)C2CCCCC2)c1 [Compound 104]

EC50 [2]: 0.127 µM and 0.127 to 0.25 µM
RE (Tables 1-15): 2.12
SMILES: COC(=O)/C=C/c1cccc(N(Cc2ccc(/C=C/C(=O)OC(C)(C)C)cc2)C(=O)C2CCCCC2)c1 [Compound 105]

FXR activation (in words) (cell-based reporter assay): only micromolar potency
SMILES: COC(=O)/C=C/c1cccc(N(Cc2cccc(/C=C/C(=O)OC(C)(C)C)c2)C(=O)C2CCCCC2)c1 [Compound 107]

FXR activation (in words) (cell-based reporter assay): only micromolar potency
SMILES: COC(=O)/C=C/c1cccc(N(Cc2ccccc2/C=C/C(=O)OC(C)(C)C)C(=O)C2CCCCC2)c1 [Compound 109]

EC50 [3]: > 1 µM
RE (Tables 1-15): 0.09
FXR activation (in words) (cell-based reporter assay): inactive
SMILES: COC(=O)/C=C/c1cccc(N(Cc2ccccc2)C(=O)C2CCCCC2)c1 [Compound 110]

EC50 [2]: 0.68 µM
RE (Tables 1-15): 0.41
SMILES: COC(=O)/C=C/c1cccc(N(C(=O)C2CCCCC2)c2ccc3ccccc3c2)c1 [Compound 111]
